The values that follow come from US7462228B2, “Water-base black ink composition and colored product” (Nippon Kayaku Kabushiki Kaisha, priority 2003, dated 2008).

Data set [1] can be described thus: Solubility in water of the dye compound. In kind it is physicochemical.
The nature of data set [2]: Maximum absorption wavelength in water (λmax). The class given is physicochemical.

In brackets after ≈: the same amount, converted by molar mass.

As for `COc1ccc(N=Nc2c(S(=O)(=O)O)cc3cc(N=Nc4c(S(=O)(=O)O)cc5cc(S(=O)(=O)O)c(N=Nc6cc7c(O)c(N=Nc8ccc(OC)cc8S(=O)(=O)O)c(S(=O)(=O)O)cc7cc6S(=O)(=O)O)c(N)c5c4O)ccc3c2O)c(S(=O)(=O)O)c1` [No. 2-2], the solubility in data set [1] was at least 100 mg/mL. The “maximum absorption wavelength in water (λmax)” value (“maximum absorption wavelength” below) in data set [2] is 657 nm.

In data set [1], `COc1ccc(N=Nc2c(S(=O)(=O)O)cc3c(S(=O)(=O)O)c(N=Nc4c(S(=O)(=O)O)cc5cc(S(=O)(=O)O)c(N=Nc6ccc7c(O)c(N=Nc8ccc(OC)cc8S(=O)(=O)O)c(S(=O)(=O)O)cc7c6S(=O)(=O)O)c(O)c5c4N)ccc3c2O)c(S(=O)(=O)O)c1` [No. 2-4] yielded a solubility of at least 100 mg/mL. Moreover, the “maximum absorption wavelength” value in data set [2] was found to be 559 nm.

For `COc1ccc(N=Nc2c(S(=O)(=O)O)cc3cc(N=Nc4c(S(=O)(=O)O)cc5cc(S(=O)(=O)O)c(N=Nc6ccc7cc(S(=O)(=O)O)c(N=Nc8ccc([N+](=O)[O-])cc8S(=O)(=O)O)c(O)c7c6)c(N)c5c4O)ccc3c2O)c(S(=O)(=O)O)c1` [No. 2-5], the solubility in data set [1] is at least 100 mg/mL. Besides, in data set [2], the “maximum absorption wavelength” value was 652 nm.

Regarding `COc1ccc(N=Nc2c(S(=O)(=O)O)cc3cc(N=Nc4c(S(=O)(=O)O)cc5cc(S(=O)(=O)O)c(N=Nc6ccc7cc(S(=O)(=O)O)c(N=Nc8ccc(OC)cc8S(=O)(=O)O)c(O)c7c6)c(N)c5c4O)ccc3c2O)c(S(=O)(=O)O)c1` [No. 2-1], the solubility in data set [1] was around 100 mg/mL (≈ 80.1 mM). In addition, in data set [2], the “maximum absorption wavelength” value came out at 647 nm.

Consider `COc1ccc(N=Nc2c(S(=O)(=O)O)cc3cc(N=Nc4c(S(=O)(=O)O)cc5cc(S(=O)(=O)O)c(N=Nc6ccc7cc(S(=O)(=O)O)c(N=Nc8cc(S(=O)(=O)O)ccc8S(=O)(=O)O)c(O)c7c6)c(N)c5c4O)ccc3c2O)c(S(=O)(=O)O)c1` [No. 2-29], for which the solubility in data set [1] was at least 100 mg/mL. The “maximum absorption wavelength” value in data set [2] was 646 nm.

In data set [1], `Nc1c(N=Nc2ccc3cc(S(=O)(=O)O)c(N=Nc4ccccc4S(=O)(=O)O)c(O)c3c2)c(S(=O)(=O)O)cc2cc(S(=O)(=O)O)c(N=Nc3ccc4cc(S(=O)(=O)O)c(N=Nc5ccccc5S(=O)(=O)O)c(O)c4c3)c(O)c12` [No. 2-11] came in with a solubility of at least 100 mg/mL. Besides, in data set [2], the “maximum absorption wavelength” value is on record as 660 nm.

`COc1ccc(N=Nc2c(S(=O)(=O)O)cc3c(S(=O)(=O)O)c(N=Nc4c(S(=O)(=O)O)cc5cc(S(=O)(=O)O)c(N=Nc6ccc7c(O)c(N=Nc8ccccc8S(=O)(=O)O)c(S(=O)(=O)O)cc7c6)c(O)c5c4N)ccc3c2O)c(S(=O)(=O)O)c1` [No. 2-28]: the solubility in data set [1] was around 100 mg/mL (≈ 77 mM). For the same compound, the “maximum absorption wavelength” value in data set [2] amounted to 645 nm.

In data set [1], `COc1ccc(N=Nc2c(S(=O)(=O)O)cc3cc(N=Nc4c(S(=O)(=O)O)cc5cc(S(=O)(=O)O)c(N=Nc6ccc7cc(S(=O)(=O)O)c(N=Nc8ccccc8S(=O)(=O)O)c(O)c7c6)c(N)c5c4O)ccc3c2O)c(S(=O)(=O)O)c1` [No. 2-3] came in with a solubility of at least 100 mg/mL. For the same compound, the “maximum absorption wavelength” value in data set [2] was 650 nm.
